Experimental data reported in patent US4731109A, “Herbicidal 2-haloacetanilides” (Monsanto Company, priority 1982, dated 1988).

Assays:
[1] = test system: purple nutsedge; assay: Greenhouse pre-emergence GR15/GR85 selectivity test; format: in vivo; settings: Table XV
Text: (§1) A good grade of top soil is placed in aluminum pans and compacted to a depth of three-eighths to one-half inch from the top of the pan. On the top of the soil is placed a number of seeds or vegetative propagules of various plant species. The soil required to level fill the pans after seeding or adding vegetative propagules is weighed into a pan. The soil and a known amount of the active ingredient applied in a solvent or as a wettable powder suspension are thoroughly mixed, and used to cover the prepared pans. After treatment, the pans are given an initial overhead irrigation of eater, equivalent to one-fourth inch (0.64 cm) rainfall, then watered by subirrigation as need to give adequate moisture for germination and growth. As an alternative procedure, the overhead irrigation may be omitted. Observations are made about 2-3 weeks after seeding and treatment.
(§2) In the discussion and tables of data below, reference is made to herbicide application rates symbolized as "GR15 " and "GR85 "; these rates are given in kilograms per hectare (kg/ha) which are convertible into pounds per acre (lbs/A) by dividing the kg/ha rate by 1.12.
(§3) A further guide to the effectiveness of a chemical as a selective herbicide is the "selectivity factor" ("SF") for a herbicide in given crops and weeds. The selectivity factor is a measure of the relative degree of crop safety and weed injury and is expressed in terms of the GR15 /GR85 ratio, i.e., the GR15 rate for the crop divided by the GR85 rate for the weed, both rates in kg/ha (lb/A). In the tables below, selectivity factors are shown in parenthesis following the GR85 rate for each weed; the symbol "NS" indicates "non-selective". Marginal or undetermined selectivity is indicated by a dash (--).
(§4) Additionally, pre-emergence herbicidal data from other tests have established that compounds according to this invention also selectively suppress quackgrass, yellow nutsedge and/or other weeds in one or more of the crops cotton, peanuts, bush beans and/or rape. For example, in Table VI are presented data showing the herbicidal selectivity of the compounds of Examples 1 and 2 against quackgrass in rape and snap beans. Unless otherwise noted; greenhouse tests in Table VI and in other tables below involved herbicide treatments by soil incorporation and an initial overhead irrigation followed by subirrigation as described above.
In other greenhouse tests, compounds according to this invention have shown selective control of a variety of annual and perennial weeds in various crops. As further illustrative, the compound of Example 1 selectively controlled purple nutsedge in both corn nd soybeans, the respective crop/weed GR15 /GR85 ratios (expressed in kg/ha) being 0.67/0.25 (S.F.=2.7) in corn and 1.1/0.25 (S.F.=4.5) in soybeans. The compound of Example 8 has shown selective control of yellow nutsedge and quackgrass in corn and soybeans. The respective crop/yellownutsedge GR15 /GR85 ratios being >2.2/0.95 (S.F.=2.5) in corn; 2.2/0.5 (SF=4.5) in soybeans and the respective GR15 /GR85 ratios for both corn and soybeans in quackgrass being >2.2/0.5 (S.F.=4.5). In a test against yellow nutsedge in cotton, the GR15 /GR85 ratio (average of two replicates) was 2.0/0.95 (S.F.=2).
(§5) In another greenhouse test, the compounds of Examples 3-5, 9 and 10 were tested for their herbicidal efficacy against a variety of resistant annual and perennial weeds in rape.

[2] = test system: corn; assay: as above; format: in vivo; settings: Table IV
Text: as §1, §2, §3
In Table IV pre-emergence herbicidal activity data are presented comparing the relative efficacy of the invention compounds and said prior art compounds as selective herbicides against the resistant and troublesome perennial weeds quackgrass and yellow nutsedge in soybeans and corn, respectively. These weeds are commonly associated with such major crops as corn and soybeans. The test data in Table IV were obtained under identical procedural conditions and represent two replicate runs (except for the compound of Example 9 which was present in one comparative test). The test procedure was the same as described for Tables II and III but modified by the application of an initial overhead irrigation equivalent to 1/4" (0.64 cm) rainfall; subsequent watering was accomplished by subirrigation. "NS" means non-selective within the test limits.
as §4

[3] = test system: soybeans; assay: Herbicidal effect in a variety of soil types; format: in vivo; settings: Table XVII B
[4] = test system: Quackgrass; assay: Herbicidal effect in a variety of soil types; format: in vivo; settings: Table XVII B; for selectivity factor (GR15/GR85): in soybeans
Text: The herbicide treatments were by soil incorporation with seeds planted 0.375 in (0.95 cm) deep, with 0.25 in (0.64 cm overhead irrigation. Observations were made about three weeks after treatment. Selectivity factors are shown in parenthesis.

[5] = test system: wild proso millet; assay: Greenhouse pre-emergence GR15/GR85 selectivity test; format: in vivo, wild proso millet (panicum milicaeum); settings: Table XVI
Text: as §1, with “After treatment, the pans are given an initial overhead irrigation of eater, equivalent to one-fourth inch (0.64 cm) rainfall, then watered by subirrigation as need to give adequate moisture for germination and growth.” left out
as §3
(§6) Unless otherwise noted; greenhouse tests in Table VI and in other tables below involved herbicide treatments by soil incorporation and an initial overhead irrigation followed by subirrigation as described above.

[6] = test system: rape; assay: as above; format: in vivo; settings: Table XV
Text: as §1, §2, §3, §4, §5

[7] = test system: fall panicum; assay: as above; format: in vivo; settings: Table XVI
Text: as §1, with “After treatment, the pans are given an initial overhead irrigation of eater, equivalent to one-fourth inch (0.64 cm) rainfall, then watered by subirrigation as need to give adequate moisture for germination and growth.” left out
as §3, §6

[8] = test system: Yellow Nutsedge; assay: as above; format: in vivo; settings: Table IV
Text: as §1, with “After treatment, the pans are given an initial overhead irrigation of eater, equivalent to one-fourth inch (0.64 cm) rainfall, then watered by subirrigation as need to give adequate moisture for germination and growth.” left out
as §3
(§7) These weeds are commonly associated with such major crops as corn and soybeans. […] The test procedure was the same as described for Tables II and III but modified by the application of an initial overhead irrigation equivalent to 1/4" (0.64 cm) rainfall; subsequent watering was accomplished by subirrigation. "NS" means non-selective within the test limits.
as §6

[9] = test system: Quackgrass; assay: as above; format: in vivo; settings: Table IV
Text: as §1, with “After treatment, the pans are given an initial overhead irrigation of eater, equivalent to one-fourth inch (0.64 cm) rainfall, then watered by subirrigation as need to give adequate moisture for germination and growth.” left out
as §3, §7, §6

CCCOCN(C(=O)CCl)c1c(C)cccc1C(F)(F)F [Example 3, N--(n-propoxymethyl)-2'-trifluoromethyl-6'-methyl-2-chloroacetanilide]
GR85 Rate [1]: 0.12 Kg/Ha
selectivity factor (GR15/GR85) ([1]; in rape): 7.5
GR15 ([2]; Replicate #1): 0.78 Kg/Ha
GR15 ([2]; Replicate #2): 0.73 Kg/Ha
GR15 ([3]; Florida muck): > 2.2 Kg/Ha
GR15 ([3]; Florida sand): 2.0 Kg/Ha
GR15 ([3]; Wabash silty clay): 2.0 Kg/Ha
GR85 ([4]; Florida muck): 1.1 Kg/Ha
GR85 ([4]; Florida sand): 0.72 Kg/Ha
GR85 ([4]; Wabash silty clay): 0.22 Kg/Ha
selectivity factor (GR15/GR85) ([4]; Florida muck): > 2
selectivity factor (GR15/GR85) ([4]; Florida sand): 2.5
selectivity factor (GR15/GR85) ([4]; Wabash silty clay): 9
GR85 Rate [5]: 0.27 Kg/Ha
selectivity factor (GR15/GR85) ([5]; in lima beans): 1.8
selectivity factor (GR15/GR85) ([5]; in peanuts): > 4.2
GR15 Rate [6]: 0.90 Kg/Ha
GR85 Rate [7]: 0.08 Kg/Ha
selectivity factor (GR15/GR85) ([7]; in lima beans): 6
selectivity factor (GR15/GR85) ([7]; in peanuts): > 14
GR85 ([8]; Replicate #1): 0.11 Kg/Ha
GR85 ([8]; Replicate #2): 0.21 Kg/Ha
selectivity factor (GR15/GR85) ([8]; yellow nutsedge in corn, Replicate #1): 7
selectivity factor (GR15/GR85) ([8]; yellow nutsedge in corn, Replicate #2): 3.5
selectivity factor (GR15/GR85) ([8]; yellow nutsedge in soybeans, Replicate #1): 10
selectivity factor (GR15/GR85) ([8]; yellow nutsedge in soybeans, Replicate #2): 5
GR85 ([9]; Replicate #1): 0.12 Kg/Ha
GR85 ([9]; Replicate #2): 0.13 Kg/Ha
selectivity factor (GR15/GR85) ([9]; quackgrass in corn, Replicate #1): 6.5
selectivity factor (GR15/GR85) ([9]; quackgrass in corn, Replicate #2): 5.5
selectivity factor (GR15/GR85) ([9]; quackgrass in soybeans, Replicate #1): 9
selectivity factor (GR15/GR85) ([9]; quackgrass in soybeans, Replicate #2): 8.5
